# Measured values published in article PMC7206119, “RIP1 inhibition blocks inflammatory diseases but not tumor growth or metastases” (Cell Death and Differentiation, 2019).
# How the values were obtained:
# Assay in all cases: biochemical
# Design in all cases: DiscoverX kinase panel, active-site competition binding (KINOMEscan type), percent of control at one concentration
# Conditions in all cases: competition binding, percent of control
# MLK2 = molecular target: T1, MLK2 (Homo sapiens, UniProt Q02779)
# T1 construct: gene MAP3K10
# ULK2 = ULK2 (Homo sapiens, UniProt Q8IYT8)
# Chain of ULK2 (Q8IYT8 whole entry): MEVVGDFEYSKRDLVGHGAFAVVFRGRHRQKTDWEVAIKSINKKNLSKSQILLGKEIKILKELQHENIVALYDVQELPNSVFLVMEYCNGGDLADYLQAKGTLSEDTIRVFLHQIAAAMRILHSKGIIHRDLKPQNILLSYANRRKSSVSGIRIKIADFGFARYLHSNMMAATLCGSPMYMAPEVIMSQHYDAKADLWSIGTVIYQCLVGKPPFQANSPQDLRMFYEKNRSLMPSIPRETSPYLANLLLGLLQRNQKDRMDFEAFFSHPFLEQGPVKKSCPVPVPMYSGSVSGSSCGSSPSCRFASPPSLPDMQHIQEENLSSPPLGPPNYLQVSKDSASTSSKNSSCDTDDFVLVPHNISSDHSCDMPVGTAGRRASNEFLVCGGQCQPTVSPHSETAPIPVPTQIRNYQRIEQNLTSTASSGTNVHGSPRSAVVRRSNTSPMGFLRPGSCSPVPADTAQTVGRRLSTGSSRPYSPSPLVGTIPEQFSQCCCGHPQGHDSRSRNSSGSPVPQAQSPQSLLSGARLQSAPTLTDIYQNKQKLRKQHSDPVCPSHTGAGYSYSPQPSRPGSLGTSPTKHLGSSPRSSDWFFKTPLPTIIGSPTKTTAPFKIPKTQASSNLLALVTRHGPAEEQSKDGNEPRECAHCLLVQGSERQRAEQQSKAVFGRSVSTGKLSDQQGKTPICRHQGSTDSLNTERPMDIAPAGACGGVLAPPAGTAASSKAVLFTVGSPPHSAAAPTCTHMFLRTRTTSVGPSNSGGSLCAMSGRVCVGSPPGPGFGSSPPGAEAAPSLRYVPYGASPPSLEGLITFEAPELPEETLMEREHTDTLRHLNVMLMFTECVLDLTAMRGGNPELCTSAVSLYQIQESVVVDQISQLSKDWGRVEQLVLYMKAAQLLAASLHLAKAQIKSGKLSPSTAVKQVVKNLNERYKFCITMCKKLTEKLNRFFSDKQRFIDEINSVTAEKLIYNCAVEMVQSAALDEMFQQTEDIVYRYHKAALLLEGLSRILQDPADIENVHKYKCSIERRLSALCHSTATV
# FGFR3(G697C) = FGFR3(G697C) (Homo sapiens, UniProt P22607, G697C)
# ACVR2A = ACVR2A (Homo sapiens, UniProt P27037)
# TRKA = molecular target: T2, TRKA (Homo sapiens, UniProt P04629)
# T2 construct: gene NTRK1
# T2 sequence (P04629 whole entry): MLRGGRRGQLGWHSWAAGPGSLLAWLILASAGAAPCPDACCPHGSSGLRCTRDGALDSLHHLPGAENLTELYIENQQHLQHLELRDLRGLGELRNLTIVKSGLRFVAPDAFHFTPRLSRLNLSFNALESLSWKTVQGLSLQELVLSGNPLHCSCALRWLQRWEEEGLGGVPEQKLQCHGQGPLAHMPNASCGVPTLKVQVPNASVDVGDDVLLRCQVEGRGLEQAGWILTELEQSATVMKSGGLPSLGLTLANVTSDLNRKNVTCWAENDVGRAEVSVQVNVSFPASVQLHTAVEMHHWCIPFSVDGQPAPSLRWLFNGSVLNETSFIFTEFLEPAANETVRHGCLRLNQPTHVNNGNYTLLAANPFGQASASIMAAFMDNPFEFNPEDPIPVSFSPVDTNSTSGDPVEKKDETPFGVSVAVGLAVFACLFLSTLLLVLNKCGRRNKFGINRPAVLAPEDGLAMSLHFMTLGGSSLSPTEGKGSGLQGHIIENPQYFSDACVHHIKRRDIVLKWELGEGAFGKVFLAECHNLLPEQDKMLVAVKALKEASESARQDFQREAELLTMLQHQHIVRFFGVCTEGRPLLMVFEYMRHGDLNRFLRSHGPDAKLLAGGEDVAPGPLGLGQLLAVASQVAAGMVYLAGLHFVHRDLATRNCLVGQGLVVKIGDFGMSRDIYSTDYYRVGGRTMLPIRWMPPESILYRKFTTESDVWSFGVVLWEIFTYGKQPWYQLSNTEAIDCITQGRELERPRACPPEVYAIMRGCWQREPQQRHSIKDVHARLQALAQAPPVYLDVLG
# ROCK2 = ROCK2 (Homo sapiens, UniProt O75116)
# Chain of ROCK2 (O75116 whole entry): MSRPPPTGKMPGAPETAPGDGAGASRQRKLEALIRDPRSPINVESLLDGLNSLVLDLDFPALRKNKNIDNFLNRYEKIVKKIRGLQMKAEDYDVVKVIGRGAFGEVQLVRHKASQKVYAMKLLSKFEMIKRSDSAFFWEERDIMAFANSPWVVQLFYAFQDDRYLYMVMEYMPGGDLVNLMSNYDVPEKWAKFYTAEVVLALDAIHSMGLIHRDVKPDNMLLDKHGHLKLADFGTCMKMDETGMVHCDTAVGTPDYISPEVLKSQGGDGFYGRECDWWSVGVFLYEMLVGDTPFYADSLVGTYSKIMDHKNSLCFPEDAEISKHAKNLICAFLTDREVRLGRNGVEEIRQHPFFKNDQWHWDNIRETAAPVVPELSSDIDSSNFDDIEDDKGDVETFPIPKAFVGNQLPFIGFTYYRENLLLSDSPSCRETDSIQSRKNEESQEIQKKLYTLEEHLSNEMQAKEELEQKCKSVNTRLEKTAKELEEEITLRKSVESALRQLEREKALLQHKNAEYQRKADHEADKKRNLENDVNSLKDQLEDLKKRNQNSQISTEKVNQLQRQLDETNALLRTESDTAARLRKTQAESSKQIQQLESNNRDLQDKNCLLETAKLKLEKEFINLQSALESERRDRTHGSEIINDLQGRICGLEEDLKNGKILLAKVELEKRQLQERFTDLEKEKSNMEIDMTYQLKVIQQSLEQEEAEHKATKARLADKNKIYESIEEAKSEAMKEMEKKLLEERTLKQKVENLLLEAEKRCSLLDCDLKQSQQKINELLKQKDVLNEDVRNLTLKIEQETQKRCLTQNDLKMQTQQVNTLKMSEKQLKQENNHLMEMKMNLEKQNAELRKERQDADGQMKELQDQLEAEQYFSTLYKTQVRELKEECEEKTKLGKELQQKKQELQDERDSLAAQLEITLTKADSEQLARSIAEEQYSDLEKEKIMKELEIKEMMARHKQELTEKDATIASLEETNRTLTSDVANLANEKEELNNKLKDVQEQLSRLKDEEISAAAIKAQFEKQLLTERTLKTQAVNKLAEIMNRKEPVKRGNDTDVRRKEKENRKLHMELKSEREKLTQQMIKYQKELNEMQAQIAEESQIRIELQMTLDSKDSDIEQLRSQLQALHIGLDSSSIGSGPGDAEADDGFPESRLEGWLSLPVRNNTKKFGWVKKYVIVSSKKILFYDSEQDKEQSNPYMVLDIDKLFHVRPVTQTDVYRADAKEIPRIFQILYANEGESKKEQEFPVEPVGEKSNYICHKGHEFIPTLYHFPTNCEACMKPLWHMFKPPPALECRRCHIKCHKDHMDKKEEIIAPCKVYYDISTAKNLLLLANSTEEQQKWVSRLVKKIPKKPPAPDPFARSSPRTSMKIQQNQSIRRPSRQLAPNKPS
# FGFR2 = FGFR2 (Homo sapiens, UniProt P21802)
# Chain of FGFR2 (P21802 whole entry): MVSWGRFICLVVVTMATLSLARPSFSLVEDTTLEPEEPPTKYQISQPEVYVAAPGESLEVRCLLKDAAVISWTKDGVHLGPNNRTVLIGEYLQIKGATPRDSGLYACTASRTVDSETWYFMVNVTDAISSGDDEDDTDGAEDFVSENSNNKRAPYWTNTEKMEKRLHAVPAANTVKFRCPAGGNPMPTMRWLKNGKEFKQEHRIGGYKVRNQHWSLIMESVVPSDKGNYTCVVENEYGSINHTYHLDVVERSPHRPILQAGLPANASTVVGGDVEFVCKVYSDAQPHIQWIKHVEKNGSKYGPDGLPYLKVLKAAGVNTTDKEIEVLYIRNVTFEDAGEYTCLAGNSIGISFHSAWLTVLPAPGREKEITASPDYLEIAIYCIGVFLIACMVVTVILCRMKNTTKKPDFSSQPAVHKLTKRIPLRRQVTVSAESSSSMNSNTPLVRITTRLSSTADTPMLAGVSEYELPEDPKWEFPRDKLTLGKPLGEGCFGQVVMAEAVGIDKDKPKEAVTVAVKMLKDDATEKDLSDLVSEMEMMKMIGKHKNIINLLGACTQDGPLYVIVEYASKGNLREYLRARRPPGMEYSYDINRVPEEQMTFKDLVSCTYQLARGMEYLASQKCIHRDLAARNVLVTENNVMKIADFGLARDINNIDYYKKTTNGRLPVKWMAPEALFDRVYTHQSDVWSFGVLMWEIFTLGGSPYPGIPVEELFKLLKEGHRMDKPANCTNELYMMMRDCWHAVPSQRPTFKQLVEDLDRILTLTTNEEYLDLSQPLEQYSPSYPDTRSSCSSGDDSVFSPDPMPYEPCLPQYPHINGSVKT
# ASK2 = molecular target: T3, ASK2 (Homo sapiens, UniProt O95382)
# T3 construct: gene MAP3K6
# CSNK1D = CSNK1D (Homo sapiens, UniProt P48730)
# Chain of CSNK1D (P48730 whole entry): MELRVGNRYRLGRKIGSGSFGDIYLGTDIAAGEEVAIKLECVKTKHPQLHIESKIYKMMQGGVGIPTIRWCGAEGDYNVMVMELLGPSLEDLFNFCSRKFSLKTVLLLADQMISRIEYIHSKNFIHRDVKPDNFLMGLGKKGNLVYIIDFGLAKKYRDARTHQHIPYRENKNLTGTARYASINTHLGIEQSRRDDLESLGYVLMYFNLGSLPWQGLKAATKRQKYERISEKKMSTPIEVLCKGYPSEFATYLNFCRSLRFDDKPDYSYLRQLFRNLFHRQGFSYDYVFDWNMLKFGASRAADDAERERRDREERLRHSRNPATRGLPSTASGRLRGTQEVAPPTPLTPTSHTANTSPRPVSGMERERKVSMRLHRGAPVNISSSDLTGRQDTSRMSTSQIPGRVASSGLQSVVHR
# SBK1 = SBK1 (Homo sapiens, UniProt Q52WX2)
# NEK7 = NEK7 (Homo sapiens, UniProt Q8TDX7)
# PRKG1 = PRKG1 (Homo sapiens, UniProt Q13976)
# CAMK1 = CAMK1 (Homo sapiens, UniProt Q14012)
# ALK = ALK (Homo sapiens, UniProt Q9UM73)
# PLK4 = PLK4 (Homo sapiens, UniProt O00444)
# CAMKK2 = CAMKK2 (Homo sapiens, UniProt Q96RR4)
# ROS1 = ROS1 (Homo sapiens, UniProt P08922)
# HASPIN = HASPIN (Homo sapiens, UniProt Q8TF76)
# [1] = molecular target: T4, ABL1(H396P)-phosphorylated (Homo sapiens, UniProt P00519, H396P)
# T4 construct: phosphorylated
# [2] = molecular target: T5, TYK2(JH1domain-catalytic) (Homo sapiens, UniProt P29597)
# T5 construct: JH1domain-catalytic
# p38-gamma = molecular target: T6, p38-gamma (Homo sapiens, UniProt P53778)
# T6 construct: gene MAPK12
# T6 sequence (P53778 whole entry): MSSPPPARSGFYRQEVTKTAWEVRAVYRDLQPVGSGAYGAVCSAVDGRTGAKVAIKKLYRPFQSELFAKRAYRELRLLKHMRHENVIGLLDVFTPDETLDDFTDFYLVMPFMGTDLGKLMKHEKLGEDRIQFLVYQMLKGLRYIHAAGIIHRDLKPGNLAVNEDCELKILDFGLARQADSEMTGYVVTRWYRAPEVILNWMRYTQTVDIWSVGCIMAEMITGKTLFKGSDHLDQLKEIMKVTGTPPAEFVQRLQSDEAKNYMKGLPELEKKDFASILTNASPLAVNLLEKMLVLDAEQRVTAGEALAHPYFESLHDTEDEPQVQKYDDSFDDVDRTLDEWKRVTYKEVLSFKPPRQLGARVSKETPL
smiles,measurement,setting,value
"COc1cc2c(cn1)N(C)C(=O)[C@@H](NC(=O)c1nc3n(n1)[C@H](c1ccccc1)CC3)CC2 [GNE684, (S)-N-((S)-7-methoxy-1-methyl-2-oxo-2,3,4,5-tetrahydro-1H-pyrido[3,4-b]azepin-3-yl)-5-phenyl-6,7-dihydro-5H-pyrrolo[1,2-b][1,2,4]triazole-2-carboxamide]",remaining binding at 10 µM,MLK2,72%
same,remaining binding at 10 µM,ULK2,100%
same,remaining binding at 10 µM,FGFR3(G697C),88%
same,remaining binding at 10 µM,ACVR2A,82%
same,remaining binding at 10 µM,TRKA,87%
same,remaining binding at 10 µM,ROCK2,100%
same,remaining binding at 10 µM,FGFR2,99%
same,remaining binding at 10 µM,ASK2,98%
same,remaining binding at 10 µM,CSNK1D,100%
same,remaining binding at 10 µM,SBK1,100%
same,remaining binding at 10 µM,NEK7,97%
same,remaining binding at 10 µM,PRKG1,81%
same,remaining binding at 10 µM,CAMK1,91%
same,remaining binding at 10 µM,ALK,81%
same,remaining binding at 10 µM,PLK4,95%
same,remaining binding at 10 µM,CAMKK2,100%
same,remaining binding at 10 µM,ROS1,96%
same,remaining binding at 10 µM,HASPIN,100%
same,remaining binding at 10 µM,[1],92%
same,remaining binding at 10 µM,[2],100%
same,remaining binding at 10 µM,p38-gamma,98%
